Measurements: patent US20210070779A1, “BORON-CONTAINING SMALL MOLECULES AS ANTI-INFLAMMATORY AGENTS” (Anacor Pharmaceuticals, Inc., priority 2013, published 2021)
Read-outs that look alike come from different tables or passages of the source.

Target: Human PDE4 (PDE4B2 truncated catalytic domain) (Homo sapiens, UniProt Q07343)
Assay: Measurement of Phosphodiesterase 4 (PDE4) inhibition, zinc and barium precipitation method
Format: biochemical
Method: Measurement of Phosphodiesterase 4 (PDE4) Inhibition
Human PDE4 enzymatic activity was assayed using the zinc and barium precipitation method of Saldou, N. et al (1998: Cell Signal, vol 10, No. 6, pp 427-440). The assay was performed in 96-well v-bottom plates (BrandPlates, Wertheim, Germany). PDE4B2 truncated is the catalytic domain including the UCR2 and a portion of the UCR1 domain of PDE4B2 (23.4 mg/mL) from Proteros Biostructures. Final concentration of enzyme in the assay was 0.3 pM. Stocks of the tested compounds were prepared in 100% DMSO at a concentration of 40 mM. The 100-μL reaction volume consisted of 45 mM Tris-HCl, pH 7.5, 12.5 mM MgSO4, 0.3 μM […] (Sigma, St Louis, Mo.) supplemented with 0.2 μM ^3H-cAMP (Perkin Elmer, Waltham, Mass.). Compounds were pre-incubated with enzyme at room temperature for 20 min prior to initiating the reaction by adding substrate (cAMP supplemented with ^3H-cAMP). After incubation at 30° C. for 6 minutes, the reaction was stopped by the addition of 50 μL fresh made 21.5 mM ZnSO4.7H2O (Alfa Aesar, Ward Hill, Mass.) containing 5 mM AMP as a co-precipitant. Total AMP was precipitated by the addition of 50 μL 17.5 mM Ba(OH)2, prepared fresh daily in water. The precipitate was transferred and collected by filtration onto a 96-well GF/B plate (Millipore, Ireland). The plates were washed five times with cold wash solution (1 mM NaOH, 100 mM NaCl) and dried at 65° C. The bottoms of plates were sealed with clear tapes (Millipore Co-operation, Billerica, Mass.) and 40 μL of scintillation cocktail (Perkin Elmer Waltham, Mass.). The plates were top sealed and radioactivity was measured with an Elmer Packard TopCount scintillation counter.

[1] = PDE4B2 truncated, 0.3 pM enzyme, 3H-cAMP substrate, 30° C. 6 minutes, read-out: PDE4 IC50

Human PDE4 (PDE4B2 truncated catalytic domain), sequence (Q07343 212-659): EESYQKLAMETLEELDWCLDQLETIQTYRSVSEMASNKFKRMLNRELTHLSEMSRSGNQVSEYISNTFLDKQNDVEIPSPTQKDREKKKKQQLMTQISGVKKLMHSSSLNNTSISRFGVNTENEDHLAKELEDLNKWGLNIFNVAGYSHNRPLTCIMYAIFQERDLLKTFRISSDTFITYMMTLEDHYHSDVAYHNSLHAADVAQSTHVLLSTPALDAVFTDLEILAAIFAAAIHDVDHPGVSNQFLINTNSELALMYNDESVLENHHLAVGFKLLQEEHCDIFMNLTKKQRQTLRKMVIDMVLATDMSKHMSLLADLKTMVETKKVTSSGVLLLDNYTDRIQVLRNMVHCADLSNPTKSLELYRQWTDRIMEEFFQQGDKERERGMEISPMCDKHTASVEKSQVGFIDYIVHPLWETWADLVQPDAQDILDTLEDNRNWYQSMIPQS

| SMILES | IC50 | IC50 [1] |
| --- | --- | --- |
| N#Cc1ccc(C(=O)c2ccc3c(c2)COB3O)cc1 [A, 4-(1-hydroxy-1,3-dihydrobenzo[c][1,2]oxaborole-5-carbonyl)benzonitrile] | 504 nM |  |
| N#Cc1ccc(C(O)c2ccc3c(c2)COB3O)cc1 (stereo not shown) [B, 4-(hydroxy(1-hydroxy-1,3-dihydrobenzo[c][1,2]oxaborol-5-yl)methyl)benzonitrile] |  | 1730 nM |
| N#Cc1ccc(Cc2ccc3c(c2)COB3O)cc1 [C, 4-((1-hydroxy-1,3-dihydrobenzo[c][1,2]oxaborol-5-yl)methyl)benzonitrile] |  | 1770 nM |
| N#Cc1ccc([S+]([O-])c2ccc3c(c2)COB3O)cc1 (stereo not shown) [D, 4-(1-hydroxy-1,3-dihydrobenzo[c][1,2]oxaborol-5-ylsulfinyl)benzonitrile] |  | 62 nM |
